Source: patent US9278994B2, “Short antimicrobial lipopeptides” (Helix BioMedix Inc., priority 2012, dated 2016)
≈ marks a conversion by molar mass, not a printed value. Where a SMILES comes first, the peptide text is derived from it. [ ]: non-standard residue; d: D form. The star is where a group is joined. Palmitoyl = CCCCCCCCCCCCCCCC(=O)*

Experiments:
P. acnes = format: cell-based, Propionibacterium acnes
Procedure: (§1) 2. Bacterial strains and culture conditions. E. coli UB1005, S. aureus SAP0017 (MRSA) and C. albicans 105 were grown in Mueller Hinton (MH) (Difco, BD Biosciences, MD) agar plates and broth (2 g of beef extract, 17.5 g of acid hydrolysis of casein and 1.5 g of starch per liter) at 37° C. unless otherwise indicated. Bacteria from frozen stock were subcultured onto freshly made MH agar plates prior to susceptibility testing. For P. acnes, the bacterium was grown in BBL™ Brain-Heart infusion (Becton, Dickinson & Company, Sparks Md.) broth or agar plates at 37° C. in anaerobic condition generated using a anaerobic jar and AnaeroGen™ (Oxoid, Basingstoke, Hampshire, England).
(§2) 3. […] The minimal inhibitory concentration (MIC) of each peptide was determined using modified CLSI microtiter broth dilution assay (Methods for Dilution Antimicrobial Susceptibility Tests for Bacteria That Grow Aerobically; Approved Standard—Ninth Edition). An inoculum of 10^5-10^6 colony forming units (CFU)/ml was used or 10^4 CFU/ml for yeast. The MIC value was taken as the lowest peptide concentration at which more than 90% of microbial growth was inhibited after 15 to 20 h of incubation at 37° C. For P. acnes, the incubation was kept under anaerobic condition at 37° C. for 2 weeks before MIC was determined Kill kinetics was performed using a given concentration (about 2-5-fold MIC) of peptide mixed with indicator microorganism. After appropriate dilution the cells were plated on agar plates after defined time intervals and incubated at 37° C. overnight. In the case of P. acnes an extended incubation period was required. The CFU was counted and plotted as survival of bacteria after peptide treatment over time, which indicates the effectiveness of a peptide to kill a microbe.

[1] = system: P. acnes, S. aureus, E. coli and C. albicans; assay: MIC / antimicrobial activity; format: cell-based; conditions: summary of MIC results of Table 1
Procedure: as §1, §2

C. albicans 105 = system: C. albicans 105
Procedure: (§3) We conducted the minimal inhibitory concentration (MIC) determination using CLSI (Clinical and Laboratory standard Institute) recommended standard protocol for antimicrobials (Methods for Dilution Antimicrobial Susceptibility Tests for Bacteria That Grow Aerobically; Approved Standard—Ninth Edition).
as §1, §2

S. aureus SAP0017 (MRSA) = system: S. aureus SAP0017 (MRSA)
Procedure: as §3, §1, §2

E. coli UB1005 = system: E. coli UB1005
Procedure: as §3, §1, §2

human dermal fibroblasts = assay: Gene profiling (PCR array of extracellular matrix adhesion molecule genes); format: cell-based; conditions: 5 μg/ml, 24 h; up (+) or down (−) regulation
Procedure: 5. Gene profiling analysis. The 84 genes encoding extracellular matrix adhesion molecules in human dermal fibroblasts were analyzed using PCR arrays conducted by Sunny Biodiscovery, Inc (Santa Paula, Calif.). Human dermal fibroblasts were from Zen-Bio, Research Triangle Park, N.C. (cat. #DF-F, lot #DFMF112410). […] At the end of the incubation cells were observed under the inverted Nikon TS microscope.
At the end of the incubation period cells were preserved in RNAlater solution (Ambion, Austin, Tex.) for 6 h. RNA was extracted and purified with NucleoSpin RNA II kit from Machery-Nagel, Bethleem, Pa.). Purified total RNA was assessed at 230 nm, 260 nm and 280 nm with Agilent HP-8452A diode array spectrophotometer. The concentration of RNA was equalized across the samples and the expression of genes of interest was measured by real-time quantitative PCR with BioRad iCycler iQ Detection System using PCR arrays PAHS-013A (www.sabiosciences.com/rt_pcr_product/HTML/PAHS-013A.html), with 1st strand synthesis kit, SYBR Green master mix and PCR running conditions from Qiagen (formerly SA Biosciences). Efficiency ΔΔCt method was used for quantification of results, after the normalization of gene expression to 5 housekeeping genes carried with the RT2 Profiler PCR Array Data Analysis version 3.5 software.

Row | Compound | MIC P. acnes (P. acnes) | antimicrobial activity (in words) [1] | MIC C. albicans (C. albicans 105) | MIC S. aureus (S. aureus SAP0017 (MRSA)) | MIC E. coli (E. coli UB1005) | further results
1 | CCCCCCCCCCCCCCCC(=O)N[C@@H](CCCCN)C(=O)N1CCC[C@@H]1C(=O)N[C@H](C(=O)O)[C@@H](C)O [HB2182, Pal-KdPT-OH] (Palmitoyl-Lys-[dP]-Thr-OH) | 32 µg/mL (≈ 0.0549 mM) | less active or inactive | >2000 µg/mL | >2000 µg/mL | >2000 µg/mL | –
2 | CCCCCCCCCCCCCCCC(=O)N[C@@H](CCCCN)C(=O)N1CCC[C@H]1C(=O)N[C@H](C(=O)O)C(C)C [HB2184, Pal-KPV-OH] (Palmitoyl-Lys-Pro-Val-OH) | 8 µg/mL (≈ 0.0138 mM) | less active or inactive | >2000 µg/mL | >2000 µg/mL | >2000 µg/mL | –
3 | CCCCCCCCCCCCCCCC(=O)N[C@@H](CCCCN)C(=O)N[C@H](C(N)=O)C(C)C [HB2239, Pal-KV-NH2] (Palmitoyl-Lys-Val-NH2) | >2000 µg/mL | – | >2000 µg/mL | >2000 µg/mL | >2000 µg/mL | –
4 | CCCCCCCCCCCCCCCC(=O)N[C@@H](CCCCN)C(=O)N[C@@H](C)C(N)=O [HB2240, Pal-KA-NH2] (Palmitoyl-Lys-Ala-NH2) | >2000 µg/mL | – | >2000 µg/mL | >2000 µg/mL | >2000 µg/mL | –
5 | CCCCCCCCCCCCCCCC(=O)N[C@@H](CCCCN)C(=O)N[C@@H](Cc1ccccc1)C(N)=O [HB2241, Pal-KF-NH2] | >2000 µg/mL | – | >2000 µg/mL | >2000 µg/mL | >2000 µg/mL | –
6 | CCCCCCCCCCCCCCCC(=O)N[C@@H](CCCCN)C(=O)N[C@@H](Cc1c[nH]cn1)C(N)=O [HB2242, Pal-KH-NH2] | 1 to 2 µg/mL | broad spectrum antimicrobial activity | 16 µg/mL (≈ 0.0307 mM) | 4 µg/mL (≈ 0.00768 mM) | 16 µg/mL (≈ 0.0307 mM) | Fold change (peptide vs. PBS control) ADAMTS (human dermal fibroblasts): 4.7899 Fold change; Fold change (peptide vs. PBS control) CDH1 (human dermal fibroblasts): 1.9725 Fold change; Fold change (peptide vs. PBS control) COL1A1 (human dermal fibroblasts): 1.1975 Fold change; Fold change (peptide vs. PBS control) COL8A1 (human dermal fibroblasts): −1.4044 Fold change; Fold change (peptide vs. PBS control) HAS1 (human dermal fibroblasts): −2.3295 Fold change; Fold change (peptide vs. PBS control) ITGA6 (human dermal fibroblasts): −1.014 Fold change; Fold change (peptide vs. PBS control) ITGA7 (human dermal fibroblasts): −2.0279 Fold change; Fold change (peptide vs. PBS control) ITGB2 (human dermal fibroblasts): 1.3947 Fold change; Fold change (peptide vs. PBS control) KAL1 (human dermal fibroblasts): 1.8404 Fold change; Fold change (peptide vs. PBS control) MMP1 (human dermal fibroblasts): 1.7171 Fold change; Fold change (peptide vs. PBS control) MMP8 (human dermal fibroblasts): −1.6472 Fold change; Fold change (peptide vs. PBS control) MMP9 (human dermal fibroblasts): −1.6472 Fold change; Fold change (peptide vs. PBS control) MMP10 (human dermal fibroblasts): 1.2142 Fold change; Fold change (peptide vs. PBS control) MMP13 (human dermal fibroblasts): −2.4967 Fold change; Fold change (peptide vs. PBS control) MMP14 (human dermal fibroblasts): 1.2142 Fold change; Fold change (peptide vs. PBS control) SELE (human dermal fibroblasts): 1.3947 Fold change; Fold change (peptide vs. PBS control) THBS3 (human dermal fibroblasts): −3.0738 Fold change
7 | CCCCCCCCCCCCCCCC(=O)N[C@@H](CCCCN)C(=O)NCC(N)=O [HB2243, Pal-KG-NH2] (Palmitoyl-Lys-Gly-NH2) | 32 to 64 µg/mL | more Gram-positive selective activity | >2000 µg/mL | 250 µg/mL (≈ 0.567 mM) | >2000 µg/mL | –
8 | CCCCCCCCCCCCCCCC(=O)N[C@@H](CCCCN)C(=O)N[C@@H](CC(C)C)C(N)=O [HB2244, Pal-KL-NH2] (Palmitoyl-Lys-Leu-NH2) | 8 µg/mL (≈ 0.0161 mM) | more Gram-positive selective activity | >2000 µg/mL | 250 µg/mL (≈ 0.503 mM) | >2000 µg/mL | –
9 | CCCCCCCCCCCCCCCC(=O)N[C@@H](CCCCN)C(=O)N[C@@H](CO)C(N)=O [HB2245, Pal-KS-NH2] | 128 µg/mL (≈ 0.272 mM) | – | >2000 µg/mL | 1000 µg/mL (≈ 2.12 mM) | >2000 µg/mL | –
10 | CCCCCCCCCCCCCCCC(=O)N[C@@H](CCCCN)C(=O)N[C@H](C(N)=O)[C@@H](C)CC [HB2246, Pal-KI-NH2] | >2000 µg/mL | more Gram-positive selective activity | >2000 µg/mL | 128 µg/mL (≈ 0.258 mM) | >2000 µg/mL | –
11 | CCCCCCCCCCCCCCCC(=O)N[C@@H](CCCCN)C(=O)N[C@@H](Cc1ccc(O)cc1)C(N)=O [HB2247, Pal-KY-NH2] | >2000 µg/mL | – | >2000 µg/mL | >2000 µg/mL | >2000 µg/mL | –
12 | CCCCCCCCCCCCCCCC(=O)N[C@@H](CCCCN)C(=O)N[C@@H](Cc1c[nH]c2ccccc12)C(N)=O [HB2248, Pal-KW-NH2] (Palmitoyl-Lys-Trp-NH2) | >2000 µg/mL | – | >2000 µg/mL | >2000 µg/mL | >2000 µg/mL | –
13 | CCCCCCCCCCCCCCCC(=O)N1CCC[C@H]1C(=O)N[C@@H](CCCCN)C(N)=O [HB2251, Pal-PK-NH2] (Palmitoyl-Pro-Lys-NH2) | 4 to 16 µg/mL | – | 128 µg/mL (≈ 0.266 mM) | 128 µg/mL (≈ 0.266 mM) | 2000 µg/mL (≈ 4.16 mM) | –
14 | CCCCCCCCCCCCCCCC(=O)N[C@@H](CCCCN)C(=O)N[C@@H](CCCNC(=N)N)C(=O)O [HB2253, Pal-KR-OH] (Palmitoyl-Lys-Arg-OH) | 2 to 4 µg/mL | broad spectrum antimicrobial activity | 32 µg/mL (≈ 0.0592 mM) | 16 µg/mL (≈ 0.0296 mM) | 500 µg/mL (≈ 0.925 mM) | –
15 | CCCCCCCCCCCCCCCC(=O)N1CCC[C@H]1C(=O)N[C@@H](CCCCN)C(=O)O [HB2255, Pal-PK-OH] (Palmitoyl-Pro-Lys-OH) | >2000 µg/mL | inactive | >2000 µg/mL | >2000 µg/mL | >2000 µg/mL | –
16 | CCCCCCCCCCCCCCCC(=O)N[C@@H](CCCCN)C(=O)N1CCC[C@@H]1C(=O)O [HB2256, Pal-K-dP-OH] (Palmitoyl-Lys-[dP]-OH) | >2000 µg/mL | – | >2000 µg/mL | >2000 µg/mL | >2000 µg/mL | –
17 | CCCCCCCCCCCCCCCC(=O)N[C@@H](CCCCN)C(=O)N1CCC[C@H]1C(=O)O [HB2257, Pal-KP-OH] (Palmitoyl-Lys-Pro-OH) | >2000 µg/mL | inactive | >2000 µg/mL | >2000 µg/mL | >2000 µg/mL | –
18 | CCCCCCCCCCCCCCCC(=O)N[C@@H](CCCCN)C(=O)N[C@@H](CCCCN)C(=O)O [HB2258, Pal-KK-OH] | 1 to 4 µg/mL | – | 64 µg/mL (≈ 0.125 mM) | 16 µg/mL (≈ 0.0312 mM) | 32 µg/mL (≈ 0.0624 mM) | –
